Assay [1] deals with MPG nerve axon of old rats. As to the kind of experiment: MPG (major pelvic ganglion) culture, nerve axon growth. In kind it is cell-based, rat. The conditions noted are these: for MPG nerve axon growth compared to control group: old rats; for MPG nerve axon growth (length of the longest nerve axon): old rats (24-month-old), n = 9. As for the experimental part:
The 24-month-old Sprague-Dawley male rats were used. All experimental animals used in this study were under a protocol approved by the Institutional Animal Care and Use Committee. Rats were anesthetized by intraperitoneal injection of pentobarbital sodium (200 mg/kg). After midline incision on abdomen, major pelvic ganglion was carefully dissected from prostate. MPG culture and treatment: the Bilaterally MPG was rapidly removed and after washing with PBS, DCR were stripped from MPG and cut into 3 pieces with the same size. Reduced Growth Factor Matrigel (RGFM) was diluted three times with serum free RPMI-1640 medium and placed in the 35 mm Petri dish on ice. The diluted RGFM were poured onto the cold sterilized glass cover slip and incubated at 37° C. for 1 hour in 35 mm Petri dishes to make the RGFM steady. Then each MPG was embedded in 40 μl of pre-cooled RGFM and maintained at 37° C. for 5 minute and cultured in RPMI 1640 with 1% penicillin-streptomycin that is maintained in humidified cell culture incubator containing 5% CO2 at 37° C. The cultured MPG tissues were randomly divided into 3 groups: control group, icariside II and sildenafil groups. […] Three MGP from the younger groups and the three MPG from the older groups were cultured with designation dose for 48-72 hours. Measurement of nerve axon growth: at the 48 and 72 hours, Nikon DXM1200 digital camera connected to Zeiss Axiovert microscope and ACT-1 software (20 times magnification) was used to observe the nerve axon growth on the MPG. The digital image was analyzed by […] 4000 and the length of the longest nerve axon was calculated.

Assay [2] deals with PAE-EGFR cells. As to the kind of experiment: eNOS protein expression by Western blot in PAE-EGFR cells. In kind it is cell-based, porcine. The conditions noted are these: 12.5 μM, 24 hr; for eNOS protein expression (normalized to β-actin): PAE-EGFR cells; for eNOS expression levels: PAE-EGFR stable strains. As for the experimental part:
1) The EGFR gene was subcloned into pGFP plasmid to construct pGFP-EGFR expression vector. With Liposome transfection reagent (Qigen), pGFP-EGFR was transfected into PAE cells. After the selection with 1800 μg/ml of G418, a single cell clone was selected. Western blot confirms the stable expression of EGFR in the PAE-EGFR cells. 2) 5×10^5 of the PAE cells and PAE-EGFR cells were seeded into 35 mm Petri dishes plate in quadruplicate. After 12 hours, PAE and PAE-EGFR cells was treated with 12.5 μM icariside II and sildenafil for 24 hr, respectively. Then the treated PAE and PAE-EGFR cells were lysed with RIPA buffer and subjected to 8% SDS-PAGE electrophoresis. eNOS protein expression was detect by Western blot. After development with super ECL luminescence substrate, the band was analyzed with a Optical density scanner. The results were analyzed by normalizing to β-actin. 3) 5×10^5 of the PAE cells and PAE-EGFR cells were seeded into 35 mm Petri dishes plate in quadruplicate. After 12 hours, PAE and PAE-EGFR cells was treated with 12.5 μM icariside II and sildenafil for 24 hr, respectively, in the presence or absence with 100 μg/ml of EGF. Then the treated PAE and PAE-EGFR cells were lysed with RIPA buffer and subjected to 8% SDS-PAGE electrophoresis. eNOS protein expression was detect by Western blot. After development with super ECL substrate, the band was analyzed with an Optical density scanner. The resulted results were analyzed by normalizing to β-actin.

Assay [3] concerns PAE-EGFR cells. As to the kind of experiment: NOS enzyme activity in EGFR expressing PAE-EGFR cells, NOS kit. It is filed as cell-based, porcine. The conditions noted are these: for NOS enzyme activity: PAE-EGFR cells. As for the experimental part:
Porcine vascular endothelial cells (PAE) were provided by the Institute of Urology, Peking University. The determination of the effect of icariside II on NOS activity in the endothelial cell is conducted using NOS kit (Cayman Chemical company, Ann Arbor, Mich., USA). Vascular endothelial cells (PAE) were treated with different concentrations of icariside II (0, 10^−9, 10^−8, 10^−7, 10^−6, 10^−5 and 10^−4 M) (sildenafil as the control group). 180 μl lysate was added into each culture well. 20 μl supernatant was used for protein concentration assay with BCA protein kit. And, 100 μl supernatant was analyzed for NOS activity with NOS kit (Cayman Chemical company, Ann Arbor, Mich., USA). NOS activity (units/mg)=[(valueNos-measure−valueNOS-blank)÷(38.3×10^6)]×[(2.15+supernatant volume)÷(15×supernatant volume)]÷[protein concentration of each Petri dish]. 1) The EGFR gene was subcloned into pGFP plasmid to construct pGFP-EGFR expression vector. With Liposome transfection reagent (Qigen), pGFP-EGFR was transfected into PAE cells. After the selection with 1800 μg/ml of G418, a single cell clone was selected. Western blot confirms the stable expression of EGFR in the PAE-EGFR cells.

For another assay, the target named is PDE5 (Homo sapiens, UniProt O76074). The conditions noted are these: tested in vitro; previous study; cited from earlier work.
Assay [4] deals with volunteers with erectile dysfunction. The conditions noted are these: 500 mg/time, single oral administration before sexual activity; cited from earlier work.

For `CCCc1nn(C)c2c(=O)[nH]c(-c3cc(S(=O)(=O)N4CCN(C)CC4)ccc3OCC)nc12` [Sildenafil, sildenafil, reference compound], the “MPG nerve axon growth compared to control group” value in assay [1] (10 nM, 100 nM, 1000 nM) is “did not significantly affect”. Also, the “MPG nerve axon growth (length of the longest nerve axon)” value came out at 215 ± 2.6 μm in assay [1] (10 nM), 238 ± 3.5 μm in assay [1] (100 nM) and 219 ± 3.2 μm in assay [1] (1000 nM). Further, in the assay on PAE-EGFR cells [2], the “eNOS protein expression (normalized to β-actin)” value amounted to 1.38 ± 0.013. The compound also gave an eNOS expression levels with PAE-EGFR cells [2] of 1.12. Further, the NOS enzyme activity is 8.99 ± 0.87 u/mg in the assay on PAE-EGFR cells [3] (10^−5 M); 8.4 ± 0.84 u/mg in the assay on PAE-EGFR cells [3] (10^−6 M); 8.53 ± 0.84 u/mg with PAE-EGFR cells [3] (10^−7 M); 8.37 ± 0.82 u/mg in the assay on PAE-EGFR cells [3] (10^−8 M); 8.48 ± 0.85 u/mg in the assay on PAE-EGFR cells [3] (10^−9 M).
On to icariside II, for which the PDE5 inhibiting potency result at PDE5 is listed as “significantly lower than sildenafil”. Also, the “MPG nerve axon growth compared to control group” value in assay [1] (10 nM, 100 nM, 1000 nM) is listed as “significantly increased”. Also, the “MPG nerve axon growth (length of the longest nerve axon)” value was 295 ± 5.3 μm* in assay [1] (10 nM), 325 ± 4.1 μm* in assay [1] (100 nM) and 406 ± 4.3 μm* in assay [1] (1000 nM). For the same compound, the “eNOS protein expression (normalized to β-actin)” value in the assay with PAE-EGFR cells [2] is 2.08 ± 0.02. The same compound displayed an eNOS expression levels in the assay on PAE-EGFR cells [2] of 1.16. Besides, in assay [4], the “erectile function after single oral administration” value was “some improvement on erectile function, but the effect is not significant”. The “NOS activity in PAE-EGFR cells higher than the activity in PAE cells” value with PAE-EGFR cells [3] (10^−8 M) is on record as 4.66 u/mg. For the same compound, the NOS enzyme activity with PAE-EGFR cells [3] (10^−5 M) is on record as 22.74 ± 2.27 u/mg; in the assay on PAE-EGFR cells [3] (10^−6 M) it was 23.91 ± 2.36 u/mg; in the assay with PAE-EGFR cells [3] (10^−7 M) it was 22.79 ± 2.45 u/mg; with PAE-EGFR cells [3] (10^−8 M), 15.37 ± 1.51 u/mg; in the assay with PAE-EGFR cells [3] (10^−8 M, listed as icariside II), 15.37±1.49 u/mg; in the assay on PAE-EGFR cells [3] (10^−9 M), 11.72 ± 1.21 u/mg.

(Values after US8530433B2, “Use of icariside II in manufacture of products for preventing or treating male or female sexual dysfunction” (Bjo-Biomed Ltd, priority 2008, dated 2013).)
